Structures can show the parent of a compound that is named as a salt. Where two headings read alike, the source gives them in different places.
Key:
[1] = biological target: PDK1 (Homo sapiens (Human), UniProt O15530); assay: PDK1 kinase assay (coupled PDK1/AKT/FAM-crosstide assay, IMAP fluorescence polarization); format: biochemical
Procedure, shortened: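 Coupled cascade: 0.75 nM PDK1 (51-359) → 10 nM AKT2 (140-467-PIFtide) → 100 nM FAM-crosstide. ATP 40 μM, 25° C, 30 min. IMAP FP (ex 485/em 530), 2 h binding. ΔmP vs conc, 4-param fit.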

[2] = test system: phospho-akt (Thr308) in PC-3 cells; assay: Inhibition of phospho-akt (Thr308) in PC-3 cells, MSD phospho-akt 308 ELISA kit; format: cell-based; settings: 2 hours, no serum, read-out: EC50
Procedure, shortened: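 Serum-free 2 h compound exposure of overnight-seeded PC-3 cells, threefold dilution series; lysates analysed on blocked MSD plates (3% BSA) for Thr308-phosphorylated Akt, normalised between DMSO and 5 μM wortmannin wells.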

[3] = inhibition of phospo-PDK1 in vitro
[4] = Homo sapiens, inhibition of P308 Akt in PC-3 cells, MSD
[5] = Homo sapiens, inhibition of P308 Akt in PC-3 cells using MSD

Chain of PDK1 (O15530 51-359): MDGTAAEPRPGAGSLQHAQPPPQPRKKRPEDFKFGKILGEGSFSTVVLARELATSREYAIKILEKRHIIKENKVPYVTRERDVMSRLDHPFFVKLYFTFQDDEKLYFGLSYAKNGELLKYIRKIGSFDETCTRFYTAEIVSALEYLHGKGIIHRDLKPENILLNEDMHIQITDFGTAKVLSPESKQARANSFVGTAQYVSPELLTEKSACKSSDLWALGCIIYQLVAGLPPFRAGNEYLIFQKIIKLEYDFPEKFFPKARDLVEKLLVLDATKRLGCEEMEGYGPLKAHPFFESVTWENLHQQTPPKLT

SMILES | IC50 [1, 3] | EC50 [2, 4] | IC50 ([1]; inhibition of PDK1 in vitro) | EC50 [2, 5] | other results
C[C@H](NC(=O)c1cccnc1NCc1ccc(-c2ccc3ncnc(N)c3c2)s1)c1cncc(F)c1 [Example 3.59, (S)-2-(((5-(4-aminoquinazolin-6-yl)thiophen-2-yl)methyl)amino)-N-(1-(5-(fluoropyridin-3-yl)ethyl)nicotinamide (TFA salt)] | < 100 nM | 1000 to 10000 nM | – | – | –
C[C@H](NC(=O)c1cc(C#N)cnc1NCc1ccc(-c2cnc(N)c(CO)n2)cc1)c1ccc(F)cc1 [Example 240, (S)-2-(4-(5-amino-6-(hydroxymethyl)pyrazin-2-yl)benzylamino)-5-cyano-N-(1-(4-fluorophenyl)ethyl)nicotinamide] | – | – | < 100 nM | < 1000 nM | –
C[C@H](NC(=O)c1cccnc1NCc1ccc(-c2ccc3ncnc(N)c3c2)s1)c1ccc(F)cc1 [Example 3.15, 2-({[5-(4-aminoquinazolin-6-yl)thiophen-2-yl]methyl}amino)-N-[(1S)-1-(4-fluorophenyl)ethyl] pyridine-3-carboxamide] | 100 to 1000 nM | < 1000 nM | – | – | –
C[C@H](NC(=O)c1cccnc1NCc1cn(-c2ccc3[nH]c(=O)[nH]c3c2)nn1)c1ccc(F)c(F)c1 [Example 9.2, (S)-N-(1-(3,4-difluorophenyl)ethyl)-2-(((1-(2-oxo-2,3-dihydro-1H-benzo[d]imidazol-5-yl)-1H-1,2,3-triazol-4-yl)methyl)amino) nicotinamide] | > 5000 nM | > 10000 nM | – | – | –
NCCCc1nc(-c2ccc(CNc3ncc(C(F)(F)F)cc3C(=O)Nc3ccc(F)cc3)cc2)cnc1N [Example 73, 2-{4-[5-Amino-6-(3-amino-propyl)-pyrazin-2-yl]-benzyl-amino}-N-(4-fluoro-phenyl)-5-trifluoromethyl-nicotinamide] | – | – | < 100 nM | < 1000 nM | –
COc1cccc(NC(=O)c2cc(C(F)(F)F)cnc2NCc2ccc(-c3cnc4[nH]nc(N)c4c3)cc2)c1 [Example 301, 2-(4-(3-amino-1H-pyrazolo [3,4-b]pyridin-5-yl)benzylamino)-N-(3-methoxyphenyl)-5-(trifluoromethyl)nicotinamide] | – | – | < 100 nM | 1000 to 10000 nM | –
Nc1cnc(-c2ccc(CNc3ncc(C(F)(F)F)cc3C(=O)Nc3ccc(F)cc3)cc2)cn1 [Example 155, 2-(4-(5-aminopyrazin-2-yl)benzylamino)-N-(4-fluorophenyl)-5-(trifluoromethyl)nicotinamide] | – | – | < 100 nM | < 1000 nM | –
Nc1ncnc2ccc(-c3ccc(CNc4ncccc4C(=O)NCc4ccncc4)s3)cc12 [Example 3.38, 2-({[5-(4-aminoquinazolin-6-yl)thiophen-2-yl]methyl}amino)-N-(pyridin-4-ylmethyl) pyridine-3-carboxamide (TFA salt)] | 1000 to 5000 nM | > 10000 nM | – | – | –
CC(C)Oc1cc(CNc2ncccc2C(=O)Nc2ccc(F)c(F)c2)cc(-c2c[nH]c3ncc(C(=O)NC4CC4)cc23)c1 [Example 4.1.1, N-cyclopropyl-3-(3-((3-(3,4-difluorophenylcarbamoyl)pyridin-2-ylamino)methyl)-5-isopropoxyphenyl)-1H-pyrrolo[2,3-b]pyridine-5-carboxamide] | 100 to 1000 nM | > 10000 nM | – | – | –
C[C@H](NC(=O)c1nc(C#N)cnc1NCc1ccc(-c2ccc3c(N)ncnn23)cc1)c1ccc(F)c(F)c1 [Example 181, 3-[4-(4-Amino-pyrrolo [2,1-f][1,2,4]triazin-7-yl)-benzylamino]-6-cyano-pyrazine-2-carboxylic acid [(S)-1-(3,4-difluoro-phenyl)-ethyl]-amide] | – | – | < 100 nM | < 1000 nM | –
N#Cc1ccc(NC(=O)c2cc(C(F)(F)F)cnc2NCc2ccc(-c3cnc4[nH]nc(N)c4c3)cc2)cc1 [Example 300, 2-(4-(3-amino-1H-pyrazolo [3,4-b]pyridin-5-yl)benzylamino)-N-(4-cyanophenyl)-5-(trifluoromethyl)nicotinamide] | – | – | < 100 nM | < 1000 nM | –
Nc1ncnc2c1c(-c1ccc(CNc3ncc(C(F)(F)F)cc3C(=O)Nc3ccc(F)cc3)cc1)cn2CCCO [Example 322, 2-(4-(4-amino-7-(3-hydroxypropyl)-7H-pyrrolo [2,3-d]pyrimidin-5-yl)benzylamino)-N-(4-fluorophenyl)-5-(trifluoromethyl)nicotinamide] | – | – | < 100 nM | < 1000 nM | –
C[C@H](NC(=O)c1cc(C#N)cnc1NCc1ccc(-c2nc3c(N)ncnc3[nH]2)cc1)c1ccc(F)cc1 [Example 113, (S)-2-(4-(6-amino-9H-purin-8-yl)benzylamino)-5-cyano-N-(1-(4-fluorophenyl)ethyl) nicotinamide] | – | – | < 100 nM | – | EC50 ([2]; inhibition of P308 Akt in PC-3 cells using MSD): > 10000 nM
C[C@H](NC(=O)c1cc(C#N)cnc1NCc1ccc(-c2ccc(C#N)nc2)cc1)c1ccc(F)cc1 [Example 111, (S)-5-cyano-2-(4-(6-cyanopyridin-3-yl)benzylamino)-N-(1-(4-fluorophenyl)ethyl)nicotinamide] | – | – | > 5000 nM | > 10000 nM | –
Cc1cccc(Cl)c1NC(=O)c1cc(C(F)(F)F)cnc1NCc1ccc(-c2cnc3[nH]nc(N)c3c2)cc1 [Example 438, 2-(4-(3-amino-1H-pyrazolo[3,4-b]pyridin-5-yl)benzylamino)-N-(2-chloro-6-methyl-phenyl)-5-(trifluoro-methyl)nicotinamide] | – | – | 1000 to 5000 nM | – | EC50 ([2]; Homo sapiens, PC-3, 2 h, inhibition of P308 Akt in PC-3 cells using MSD): > 10000 nM
C[C@H](NC(=O)c1c(NCc2ccc(-c3ccc4ncnc(N)c4c3)s2)ncc(Br)c1N)c1ccc(F)c(F)c1 [Example 3.87] | 1000 to 5000 nM | > 10000 nM | – | – | –
C[C@H](NC(=O)c1cn(C)nc1NCc1ccc(-c2ccc3ncnc(N)c3c2)s1)c1ccc(F)c(F)c1 [Example 11.4, (S)-3-(((5-(4-aminoquinazolin-6-yl)thiophen-2-yl)methyl)amino)-N-(1-(3,4-difluorophenyl)ethyl) 1-methyl-1H-pyrazole-4-carboxamide] | < 100 nM | 1000 to 10000 nM | – | – | –
N#Cc1cnc(NCc2ccc(-c3cnc(N)cn3)cc2)c(C(=O)NCc2ccc(F)cc2)c1 [Example 378, 2-(4-(5-aminopyrazin-2-yl)benzylamino)-5-cyano-N-(4-fluorobenzyl) nicotinamide] | – | – | < 100 nM | 1000 to 10000 nM | –
C[C@H](NC(=O)c1cc(C(F)(F)F)cnc1NCc1ccc(-c2cnc3[nH]nc(N)c3c2)cc1)c1ccc(Cl)cc1 [Example 277, 2-(4-(3-amino-1H-pyrazolo [3,4-b]pyridin-5-yl)benzylamino)-N-(1-(4-chlorophenyl)ethyl)-5-(trifluoromethyl) nicotinamide] | – | – | < 100 nM | < 1000 nM | –
Nc1ncnc2c1c(-c1ccc(CNc3ncc(C(F)(F)F)cc3C(=O)NCc3ccc(F)c(F)c3)cc1)cn2CCCO [Example 334, 2-(4-(4-amino-7-(3-hydroxypropyl)-7H-pyrrolo[2,3-d]pyrimidin-5-yl)-benzylamino)-N-(3,4-difluorobenzyl)-5-(trifluoromethyl)nicotinamide] | – | – | < 100 nM | < 1000 nM | –
C[C@H](NC(=O)c1cc(C(F)(F)F)cnc1NCc1ccc(-c2cc3c(N)ncnc3cn2)s1)c1ccc(F)c(F)c1 [Example 8.12.8, 2-({[5-(4-aminopyrido [3,4-d]pyrimidin-6-yl)thiophen-2-yl]methyl}amino)-N-[(1S)-1-(3,4-difluorophenyl)ethyl]-5-(trifluoromethyl) pyridine-3-carboxamide] | 100 to 1000 nM | 1000 to 10000 nM | – | – | –
CN(c1ncnc2ccc(-c3ccc(CNc4ncccc4C(=O)NCc4ccc(F)c(F)c4)s3)cc12)C1CCCCC1 [Example 4.21, 2-(((5-(4-(cyclohexyl (methyl)amino)quinazolin-6-yl)thiophen-2-yl)methyl)amino)-N-(3,4-difluorobenzyl) nicotinamide] | > 5000 nM | > 10000 nM | – | – | –
C[C@H](NC(=O)c1nc(C#N)cnc1NCc1ccc(-c2cnc3[nH]ncc3c2)cc1)c1ccc(F)cc1 [Example 389, 6-Cyano-3-[4-(1H-pyrazolo [3,4-b]pyridin-5-yl)-benzylamino]-pyrazine-2-carboxylic acid [(S)-1-(4-fluoro-phenyl)-ethyl]-amide] | – | – | < 100 nM | < 1000 nM | –
C[C@H](NC(=O)c1cc(C#N)cnc1NCc1ccc(-c2cnc(N)cn2)cc1F)c1ccc(F)cc1 [Example 130, (S)-2-(4-(5-aminopyrazin-2-yl)-2-fluorobenzylamino)-5-cyano-N-(1-(4-fluorophenyl)ethyl) nicotinamide] | – | – | < 100 nM | 1000 to 10000 nM | –
N#Cc1cnc(NCc2ccc(-c3cnc(N)cn3)cc2)c(C(=O)NCc2ccc(F)c(F)c2)c1 [Example 377, 2-(4-(5-aminopyrazin-2-yl)benzylamino)-5-cyano-N-(3,4-difluorobenzyl) nicotinamide] | – | – | < 100 nM | 1000 to 10000 nM | –
Nc1ncnc2ccc(-c3ccc(CNc4ncccc4C(=O)NCc4ccc(Cl)cc4)s3)cc12 [Example 3.22, 2-({[5-(4-aminoquinazolin-6-yl)thiophen-2-yl]methyl}amino)-N-(4-chlorobenzyl)pyridine-3-carboxamide (TFA salt)] | 100 to 1000 nM | – | – | – | EC50 ([2]; Homo sapiens, PC-3, 2 h, inhibition of P308 Akt in PC-3 cells, MSD): > 10000 nM
CC(C)Oc1cc(CNc2ncccc2C(=O)NCc2ccc(F)c(F)c2)cc(-c2ccc3ncnc(N)c3c2)c1 [Example 5.6] | < 100 nM | 1000 to 10000 nM | – | – | –
